Data: PMC6162288, “On-chip spatiotemporal electrophysiological analysis of human stem cell derived cardiomyocytes enables quantitative assessment of proarrhythmia in drug development” (Scientific Reports, 2018)
One block for each compound: values may come before it.

What was measured:
lined-up hESC-CMs = assay: MEA field potential recording of lined-up hESC-CMs (cFPD, CT, their STVs, ISI, beat rate, arrest); format: cell-based, human; details: for BR (beat rate) / ISI (inter-spike interval) / STVCT / STVcFPD / cFPD / Cond. Time (CT): change vs Ctrl.; for CT: at equivalent concentrations of Nav1.5 IC50; for Arrest: arrest cases/chips
Description: Human embryonic stem cell-derived cardiomyocytes clusters (hES-CMCs) were shipped from Cellectis (hES-CMCTM002, hES cell line SA002, Gothenburg, Sweden)[42],[43], and maintained in Dulbecco’s modified Eagle’s medium (DMEM) supplemented 20% heat-inactivated fetal bovaine serum, 1 mM GlutaMax, 100 U/mL penicillin, 0.1 mg/mL streptomycin, 1% nonessential amino acids and 0.1 mM β-mercaptoethanol (Invitrogen, Carsbad, CA, USA). Dispersed cardiomyocytes were isolated from hES-CMCs by a modification of the methods of Norström et al.[44]–[48]. […] The supernatant was gently aspirated with pipette, and a 5-hold volume of DMEM was added as stop solution. Remaining clusters were treats ed with the above process with several times. The supernatants were collected and centrifuged with 200 × g for 2–3 min at 4 °C. The resulting supernatant including dispersed cells was seeded into agarose microchambers on an MEA chip (MED-P530A; AlphaMED scientific. Co. Ltd., Japan)[40].
The MEA chip surface was prepared as follows. First, the chip surface was coated with collagen type I-C (Nitta Gelatin, Japan). After drying, the chip surface was coated with a 0.1% agarose gel. […] At >30 min before the start of experiment, the medium was changed to 2 mL pre-warmed fresh maintenance medium per chip.
Extracellular potential recordings of the lined-up hESC-CMs were performed using the MEA system at a sampling rate of 10 kHz with a low path filter of 2 kHz and high path filter of 1 Hz, and signals were amplified by 100–50,000 using the amplifier. The MEA chip with lined-up hESC-CMs was set in the FP measurement device and placed in a humidified cell culture incubator at 37 °C, 5% CO2. The signals were analyzed by Igor Pro 6.0 (WaveMetrics, Inc., USA) and FlexPro 7.0 (Weisang GmbH, Germany).
We adopted the same drug administration protocol as we examined previously[40] (Fig. 2B). Briefly, the MEA chips of lined-up cells for experiments were selected from the chips having 0.6–1.1 Hz beating frequency and ventricle-like waveforms of FP recordings (see Fig. 1B,D). The MEA chip was placed in the holder of the FP measurement device, and equilibrated for 5 min, and then the control FP waveforms were recorded for 10 min. Subsequently, the drug was applied to the medium at 1% dilution in serially increasing additions, and the FP waveforms were recorded for 10 min at each concentration. Finally, the drug-containing medium was replaced with fresh medium after washing three times. The last 50 beats extracted from 10 min recorded FP waveform data was used for beat rate, FPD (the time from first depolarization peak to broad repolarization peak) and CT (the time difference of the first peaks between separately placed electrodes in lined-upped cell-network) measurement at each concentration (Fig. 2C).
It was normalized (cFPD) to the beating rate of cardiomyocytes using Bazett’s correction formula based on the comparison of the slope of a plot of inter-spike interval and FPD, or corrected FPD by Bazett’s or Fridericia’s formulae (Fig. 3). The short-term variability (STV) of cFPD and CT, which was defined as the mean distance of points perpendicular to the line of identity in the Poincaré plot, was calculated ( STV=∑|D(n+1)−Dn|/(n×2) , where Dn represents the FPD and CT of n-th beating). STVs were last 50 beat data from 5 min extraction of cFPD and CT. To assess the arrhythmogenicity risk of test drugs, the mean values of cFPD, STVcFPD, CT and STVCT of each drug were plotted.

[1] = cited from earlier work; for EPTC: effective therapeutic plasma concentration
Cav1.2 = details: read-out: IC50 Cav1.2; cited from earlier work
[2] = Conc. 10^5 nM (100 μM), listed as lidocaine
[3] = Conc. 10^5 nM (100 μM), listed as terfenadine

Compound: CCN(CC)CC(=O)Nc1c(C)cccc1C [Lidocaine, lidocaine]
cFPD change (lined-up hESC-CMs; 10–100 μM, P < 0.05): −18%
BR (beat rate) (lined-up hESC-CMs; Conc. 10 nM): 3.6%
ISI (inter-spike interval) (lined-up hESC-CMs; Conc. 10 nM): −3.4%
STVCT (lined-up hESC-CMs; Conc. 10 nM): 46%
STVcFPD (lined-up hESC-CMs; Conc. 10 nM): 54%
cFPD (lined-up hESC-CMs; Conc. 10 nM): 9.5%
Cond. Time (CT) (lined-up hESC-CMs; Conc. 10^2 nM (0.1 μM)): −6.0%
STVCT (lined-up hESC-CMs; Conc. 10^2 nM (0.1 μM)): 43%
STVcFPD (lined-up hESC-CMs; Conc. 10^2 nM (0.1 μM)): 38%
cFPD (lined-up hESC-CMs; Conc. 10^2 nM (0.1 μM)): 10%
BR (beat rate) (lined-up hESC-CMs; Conc. 10^2 nM): 4.4%
ISI (inter-spike interval) (lined-up hESC-CMs; Conc. 10^2 nM): −4.2%
Cond. Time (CT) (lined-up hESC-CMs; Conc. 10^3 nM (1 μM)): −7.4%
STVCT (lined-up hESC-CMs; Conc. 10^3 nM (1 μM)): 35%
STVcFPD (lined-up hESC-CMs; Conc. 10^3 nM (1 μM)): 54%
cFPD (lined-up hESC-CMs; Conc. 10^3 nM (1 μM)): 9.7%
BR (beat rate) (lined-up hESC-CMs; Conc. 10^3 nM): 2.8%
ISI (inter-spike interval) (lined-up hESC-CMs; Conc. 10^3 nM): −2.6%
Cond. Time (CT) (lined-up hESC-CMs; Conc. 10^4 nM (10 μM)): 4.7%
STVCT (lined-up hESC-CMs; Conc. 10^4 nM (10 μM)): 134%
STVcFPD (lined-up hESC-CMs; Conc. 10^4 nM (10 μM)): 345%
cFPD (lined-up hESC-CMs; Conc. 10^4 nM (10 μM)): −18%
STVCT (lined-up hESC-CMs; Conc. 10^4 nM (10 μM), listed as lidocaine): 134%
BR (beat rate) (lined-up hESC-CMs; Conc. 10^4 nM): −48%
ISI (inter-spike interval) (lined-up hESC-CMs; Conc. 10^4 nM): 128%
Cond. Time (CT) (lined-up hESC-CMs; Conc. 10^5 nM (100 μM)): 22%
STVCT (lined-up hESC-CMs; Conc. 10^5 nM (100 μM)): 54%
STVcFPD (lined-up hESC-CMs; Conc. 10^5 nM (100 μM)): 143%
cFPD (lined-up hESC-CMs; Conc. 10^5 nM (100 μM)): −18%
Cond. Time (CT) (lined-up hESC-CMs; [2]): 22.1%
STVCT (lined-up hESC-CMs; [2]): 54%
BR (beat rate) (lined-up hESC-CMs; Conc. 10^5 nM): −51%
ISI (inter-spike interval) (lined-up hESC-CMs; Conc. 10^5 nM): 160%
CT (lined-up hESC-CMs): increased
EPTC [1]: 5,970–25,603[69] nM

Arrest (lined-up hESC-CMs; Conc. 10^4 nM): 3/7
Compound: CC(C)(C)c1ccc(C(O)CCCN2CCC(C(O)(c3ccccc3)c3ccccc3)CC2)cc1 (stereo not drawn) [Terfenadine, terfenadine]
CT increase (lined-up hESC-CMs; 3 μM, n = 4, P < 0.05): 189%
BR (beat rate) (lined-up hESC-CMs; Conc. 10 nM): 4.6%
Cond. Time (CT) (lined-up hESC-CMs; Conc. 10 nM): 32%
STVCT (lined-up hESC-CMs; Conc. 10 nM): 37%
STVcFPD (lined-up hESC-CMs; Conc. 10 nM): 76%
cFPD (lined-up hESC-CMs; Conc. 10 nM): 2.3%
STVCT (lined-up hESC-CMs; Conc. 10^2 nM (0.1 μM)): 16%
STVcFPD (lined-up hESC-CMs; Conc. 10^2 nM (0.1 μM)): −3.4%
cFPD (lined-up hESC-CMs; Conc. 10^2 nM (0.1 μM)): 2.8%
Cond. Time (CT) (lined-up hESC-CMs; Conc. 10^3 nM (1 μM)): 101%
STVCT (lined-up hESC-CMs; Conc. 10^3 nM (1 μM)): 228%
STVcFPD (lined-up hESC-CMs; Conc. 10^3 nM (1 μM)): 37%
cFPD (lined-up hESC-CMs; Conc. 10^3 nM (1 μM)): 0.25%
STVCT (lined-up hESC-CMs; Conc. 10^3 nM (1 μM), listed as terfenadine): 228%
BR (beat rate) (lined-up hESC-CMs; Conc. 10^3 nM): −3.0%
ISI (inter-spike interval) (lined-up hESC-CMs; Conc. 10^3 nM): 3.1%
Cond. Time (CT) (lined-up hESC-CMs; Conc. 10^4 nM (10 μM)): 189%
STVCT (lined-up hESC-CMs; Conc. 10^4 nM (10 μM)): 511%
STVcFPD (lined-up hESC-CMs; Conc. 10^4 nM (10 μM)): 65%
cFPD (lined-up hESC-CMs; Conc. 10^4 nM (10 μM)): −26%
cFPD (lined-up hESC-CMs; Conc. 10^4 nM (10 μM), listed as terfenadine): −26%
BR (beat rate) (lined-up hESC-CMs; Conc. 10^4 nM): −38%
ISI (inter-spike interval) (lined-up hESC-CMs; Conc. 10^4 nM): 122%
Cond. Time (CT) (lined-up hESC-CMs; Conc. 10^5 nM (100 μM)): 198%
STVCT (lined-up hESC-CMs; Conc. 10^5 nM (100 μM)): 143%
STVcFPD (lined-up hESC-CMs; Conc. 10^5 nM (100 μM)): 243%
STVcFPD (lined-up hESC-CMs; [3]): 243%
cFPD (lined-up hESC-CMs; [3]): −78%
BR (beat rate) (lined-up hESC-CMs; Conc. 10^5 nM): −88%
ISI (inter-spike interval) (lined-up hESC-CMs; Conc. 10^5 nM): 744%
CT (lined-up hESC-CMs): increased
FPD (lined-up hESC-CMs; concentrations more than 10 μM): FPD shortening
EPTC [1]: 3.3 to 9.7 nM
Unbound ([1]; unbound therapeutic plasma concentration): 0.1 to 0.29 nM
